Consider three compounds from publication PMC4608554 (Bioorganic & medicinal chemistry, 2015).

One series relates to patients. The note with it: cited from earlier work.
The conditions of series [1]: 2:1 complex with Fe(III); cited from earlier work.
The subject of series [2] is iron-overloaded Cebus apella monkeys. As to conditions: po, 150 µmol/kg, historical, ref 41 (1), ref 53 (2); cited from earlier work.
Series [3] concerns non-iron-overloaded, bile duct-cannulated rats. The note with it: rat, po, 150 µmol/kg; cited from earlier work.
The test system of another series is rats. As to conditions: cited from earlier work.
Series [4] deals with iron-overloaded Cebus apella monkeys. Kind of series: Chelator-induced iron clearance. Type of series: in vivo. The note with it: 75 µmol/kg, same animals po and sc.
Series [5] in a line: Tissue distribution/metabolism of chelators in rats. The format is in vivo, rat (male Sprague-Dawley). The note with it: for concentration in kidney: rat kidney; for concentration in pancreas: rat pancreas.

Each structure is given as a SMILES string.

As to `C[C@]1(C(=O)O)CSC(c2ccc(O)cc2O)=N1` [compound 2, (S)-2-(2,4-dihydroxyphenyl)-4,5-dihydro-4-methyl-4-thiazolecarboxylic acid], the tolerability in patients entry in the series with patients (5, 10, or 15 mg/kg/day once daily (s.i.d) for up to 12 weeks) is “well tolerated”. Moreover, the “renal toxicity in patients (increases in BUN and SCr)” value in the series with patients (b.i.d. 12.5 mg/kg (25 mg/kg/d), three patients after 4-5 weeks) is listed as “unacceptable renal toxicity”.
For `C[C@]1(C(=O)O)CSC(c2ncccc2O)=N1` [compound 1, (S)-4,5-dihydro-2-(3-hydroxy-2-pyridinyl)-4-methyl-4-thiazolecarboxylic acid], in series [1], the cumulative formation constant was 4 × 10^29. Besides, the “Primate ICE (%)” value in series [2] is 16.1 ± 8.5%. Moreover, the “Rodent ICE (%)” value in series [3] is 5.5 ± 3.2%. Also, the “renal toxicity in rats” value in the series on rats is on record as “unacceptable renal toxicity”.
Turning to `C[C@]1(C(=O)O)CSC(c2ccc(OCC(=O)O)cc2O)=N1` [compound 14, (S)-4,5-dihydro-2-[2-hydroxy-4-(carboxymethoxy)phenyl]-4-methyl-4-thiazolecarboxylic acid], the “sc ICE vs po ICE in the primates (times higher)” value in series [4] is listed as 5.3 times. In addition, the concentration in heart in series [5] (rat heart, 0.5 h after 11 sc 300 µmol/kg) was found to be 17 nmol/g wet weight; in series [5] (rat heart, 1 h after 11 sc 300 µmol/kg) it was 23 nmol/g wet weight. Further, in series [5] (rat heart, later time points (2-8 h) after 11 sc 300 µmol/kg), the presence in heart entry is “not found”. For the same compound, the concentration in kidney in series [5] (0.5 h after 11 sc 300 µmol/kg) was found to be 156 nmol/g wet weight; in series [5] (1 h after 11 sc 300 µmol/kg), 201 nmol/g wet weight; in series [5] (2 h after 11 sc 300 µmol/kg) it was 161 nmol/g wet weight; in series [5] (8 h after 11 sc 300 µmol/kg), 5 nmol/g wet weight. For the same compound, the “share of the total drug (parent + metabolites)” value in series [5] (rat liver, 0.5 h after 11 sc 300 µmol/kg) is recorded as 18%; in series [5] (rat liver, 1 h after 11 sc 300 µmol/kg), 25%. Also, the presence in liver entry in series [5] (rat liver, 8 h after 11 sc 300 µmol/kg) is “trace amounts”. The concentration in pancreas entry in series [5] (0.5 h after 11 sc 300 µmol/kg), in series [5] (1 h after 11 sc 300 µmol/kg) and in series [5] (2 h after 11 sc 300 µmol/kg) was “Trace amounts” throughout. The “share of the total (parent + metabolites)” value in series [5] (rat plasma, 4 h after 11 sc 300 µmol/kg) worked out at 50%.
